From patent US9487462B2, “Inhibitors of matrix metalloproteinases” (PharmaHungary 2000 Kft., priority 2010, dated 2016)
Values belong to the compound of their own block, whether it stands above or below them.

Experiments:
[1] = target: MMP2 (Homo sapiens, UniProt P08253); experiment: MMP activity assay (fluorogenic substrate), MMP2 catalytic domain; type: biochemical; conditions: Table 2; read-out: MMP2 IC50
Experimental: (§1) MMP activity assays were conducted as follows: MMP2, MMP9, MMP13 catalytic domain was expressed in E. coli in form of inclusion bodies followed by refolding and purification.
(§2) The Protocol of the Activity Assay:
(§3) Stock solution of substrate (Mca-Lys-Pro-Leu-Gly-Leu-Dpa-Ala-Arg-NH2) was prepared in DMSO at a concentration of 6 mM. Assays were performed in an assay buffer (50 mM Tris pH 7.5, 300 mM NaCl, 10 μM ZnSO4, 5 mM CaCl2, 0.005% Brij-35). The final DMSO concentration in all assays was 1.0%. […] The assays were carried out at 37° C. The fluorescence changes, resulting from the substrate cleavage, were detected using excitation at 340 nm and emission wavelength of 405 nm using a Wallac 1420 Microplate Reader. The reaction mixtures were preincubated with the inhibitors for 30 minutes. The reactions were started by the addition of MMP substrate, and the fluorescence intensity changes were measured after 60 minutes. The obtained fluorescence values were normalized and % inhibition values calculated. Dose response curves were determined from 6 concentration points using three fold dilution steps, each concentration point was determined in duplicate. IC50 values were calculated from the dose response curves.

[2] = system: neonatal rat cardiac myocytes; experiment: Cytoprotective effect in cardiac myocytes subjected to hypoxia and reoxygenation; type: cell-based
Experimental: Neonatal rat hearts were digested and isolated cardiomyocytes were plated onto 24-well plastic plates at […]. The cells were maintained at 37° C. in a humidified atmosphere of 5% CO2 and 95% air in a CO2 incubator until confluence was reached. Cultures at day 3 were used for treatments. Cells were kept under normoxic or simulated ischemic conditions, i.e. the growth medium was changed to a normoxic or hypoxic solution and the cells were incubated under 95% air and 5% CO2 or 95% N2 and 5% CO2 at 37° C. for 4 h, respectively as described in detail (Gorbe A, Giricz Z, Szunyog A, Csont T, Burley D S, Baxter G F, Ferdinandy P. Role of cGMP-PKG signaling in the protection of neonatal rat cardiac myocytes subjected to simulated ischemia/reoxygenation. Basic Res Cardiol. 105:643-650, 2010). The positive control ilomastate (0.5 microM) and MMP-inhibitors at different effective concentrations (EC 5, EC 10, EC 20, and EC50 as determined in previous test examples) were applied during normoxia or simulated ischemia and also during reoxygenation. The vehicle was DMSO. Cell viability was determined after Calcein A M fluorescent staining as described (Karliner J S, Honbo N, Summers K, Gray M O, Goetzl E J. The lysophospholipids sphingosine-1-phosphate and lysophosphatidic acid enhance survival during hypoxia in neonatal rat cardiac myocytes. J Mol Cell Cardiol, 33:1713-7, 2001). Total cell count was determined after digitonin treatment to permeabilize the cells by using propidium iodine fluorescent staining (Roy S S, Hajnoczky G. Calcium, mitochondria and apoptosis studied by fluorescence measurements. Methods. 46:213-223, 2008).

[3] = target: MMP1 (Homo sapiens (Human), UniProt P03956); experiment: MMP activity assay (fluorogenic substrate), MMP1; type: biochemical; conditions: Table 2; read-out: MM1 IC50
[4] = Cytotoxicity, alamarBlue viability, HCT116; type: cell-based; conditions: human, HCT116 colon tumor cells, 48 hours incubation, read-out: HCT116 LC50
Experimental: (§4) Beside the inhibitory effect on MMPs we tested the cytotoxicity of the selected compounds. These measurements were done in parallel on two cell lines. One of them was the healthy human fibroblast cell line MRC-5 while the other was the human colon tumor cell line HCT116. The viability of the cells was monitored using alamarBlue. This dye is reduced by the cells resulting in an increased fluorescent signal which is proportional to the number of living cells. Cells were incubated with the dilutions of the tested compounds for 48 hours then alamarBlue was added to them for 4 hours. After that the fluorescence changes were detected using excitation at 540 nm and emission wavelength of 590 nm by a Wallac 1420 Microplate Reader. IC50 values were determined for the compounds using six concentrations and duplicate points for each concentration.

[5] = Cytotoxicity, alamarBlue viability, MRC-5; type: cell-based; conditions: human, MRC-5 fibroblast cells, 48 hours incubation, read-out: MRC-5 LC50
Experimental: as §4

[6] = target: MMP13 (Homo sapiens (Human), UniProt P45452); experiment: MMP activity assay (fluorogenic substrate), MMP13 catalytic domain; type: biochemical; conditions: Table 2; read-out: MMP13 IC50
Experimental: as §1, §2
as §3, with “The fluorescence changes, resulting from the substrate cleavage, were detected using excitation at 340 nm and emission wavelength of 405 nm using a Wallac 1420 Microplate Reader.” left out

[7] = target: MMP9 (Homo sapiens, UniProt P14780); experiment: MMP activity assay (fluorogenic substrate), MMP9 catalytic domain; type: biochemical; conditions: Table 2
Experimental: as §1, §2, §3

Chain of MMP1 (P03956 100-469, species assumed): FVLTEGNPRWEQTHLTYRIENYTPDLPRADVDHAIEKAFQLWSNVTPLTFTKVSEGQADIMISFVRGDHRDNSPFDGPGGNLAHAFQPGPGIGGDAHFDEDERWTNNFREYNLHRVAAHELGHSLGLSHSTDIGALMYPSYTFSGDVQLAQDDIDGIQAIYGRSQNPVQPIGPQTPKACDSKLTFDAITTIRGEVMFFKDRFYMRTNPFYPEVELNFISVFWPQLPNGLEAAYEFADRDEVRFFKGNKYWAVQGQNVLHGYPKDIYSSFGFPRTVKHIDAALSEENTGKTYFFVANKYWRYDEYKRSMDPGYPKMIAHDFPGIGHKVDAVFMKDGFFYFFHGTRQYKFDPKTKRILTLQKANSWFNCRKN

SMILES: CCOC(=O)c1csc(CN(Cc2ccc(OCc3ccccc3)cc2)Cc2cccnc2)n1 [Compound 16, Ethyl 2-[({[4-(benzyloxy)phenyl]methyl}(pyridin-3-ylmethyl)amino)methyl]-1,3-thiazole-4-carboxylate]
IC50 [1]: > 500 µM | Cytoprotective effect, % cell survival as compared to vehicle DMSO ([2]; normoxia, EC5 concentration 4.0 microM): 105 ± 2% | Cytoprotective effect, % cell survival as compared to vehicle DMSO ([2]; normoxia, EC10 concentration 8.0 microM): 108 ± 3 % | Cytoprotective effect, % cell survival as compared to vehicle DMSO ([2]; normoxia, EC20 concentration 16.0 microM): 99 ± 2% | Cytoprotective effect, % cell survival as compared to vehicle DMSO ([2]; normoxia, EC50 concentration 32.0 microM): 91 ± 2 % | Cytoprotective effect, % cell survival as compared to vehicle DMSO ([2]; simulated ischemia, EC5 concentration 4.0 microM): 119 ± 3 % | Cytoprotective effect, % cell survival as compared to vehicle DMSO ([2]; simulated ischemia, EC10 concentration 8.0 microM): 119 ± 3 % | Cytoprotective effect, % cell survival as compared to vehicle DMSO ([2]; simulated ischemia, EC20 concentration 16.0 microM): 122 ± 4 % | Cytoprotective effect, % cell survival as compared to vehicle DMSO ([2]; simulated ischemia, EC50 concentration 32.0 microM): 113 ± 4 % | IC50 [3]: 340 µM | CC50 at 48 h [4]: 1.8 µM | CC50 at 48 h [5]: 1.9 µM | IC50 [6]: 5 µM | IC50 [7]: 280 µM

SMILES: O=C(O)c1c[nH]c(CNCc2ccc(OCc3cccnc3)cc2)n1 [Compound 31, 2-[({[4-(Pyridin-3-ylmethoxy)phenyl]methyl}amino)methyl]-1H-imidazole-4-carboxylic acid]
IC50 [1]: > 500 µM | Cytoprotective effect, % cell survival as compared to vehicle DMSO ([2]; normoxia, EC5 concentration 0.3 microM): 97 ± 4% | Cytoprotective effect, % cell survival as compared to vehicle DMSO ([2]; normoxia, EC10 concentration 0.6 microM): 102 ± 5% | Cytoprotective effect, % cell survival as compared to vehicle DMSO ([2]; normoxia, EC20 concentration 1.2 microM): 104 ± 3% | Cytoprotective effect, % cell survival as compared to vehicle DMSO ([2]; normoxia, EC50 concentration 2.5 microM): 105 ± 4% | Cytoprotective effect, % cell survival as compared to vehicle DMSO ([2]; simulated ischemia, EC5 concentration 0.3 microM): 109 ± 5% | Cytoprotective effect, % cell survival as compared to vehicle DMSO ([2]; simulated ischemia, EC10 concentration 0.6 microM): 103 ± 4% | Cytoprotective effect, % cell survival as compared to vehicle DMSO ([2]; simulated ischemia, EC20 concentration 1.2 microM): 111 ± 4% | Cytoprotective effect, % cell survival as compared to vehicle DMSO ([2]; simulated ischemia, EC50 concentration 2.5 microM): 147 ± 2 % | IC50 [3]: 235 µM | CC50 at 48 h [4]: 70 µM | CC50 at 48 h [5]: 200 µM | IC50 [6]: 10 µM | IC50 [7]: > 500 µM

SMILES: CCOC(=O)c1csc(CN(Cc2ccc(F)cc2)Cc2ccc(-c3ccccc3)cc2)n1 [Compound 32, 2-{[Biphenyl-4-ylmethyl-(4-fluoro-benzyl)-amino]-methyl}-thiazole-4-carboxylic acid ethylester]
IC50 [1]: > 500 µM | IC50 [3]: 90 µM | CC50 at 48 h [4]: 0.7 µM | CC50 at 48 h [5]: 13 µM | IC50 [6]: 31 µM | IC50 [7]: 200 µM

The next compounds have a lower IC50 [1] than those just listed; values first:

IC50 [1]: 30 µM | IC50 [3]: 17 µM | IC50 [6]: 3 µM | IC50 [7]: 20 µM
SMILES: O=C(O)c1csc(CN(Cc2ccc(F)cc2)Cc2ccc(-c3ccccc3)cc2)n1 [Compound 15, 2-({[(4-Fluorophenyl)methyl][(4-biphenyl)methyl]amino}methyl)-1,3-thiazole-4-carboxylic acid]
Cytoprotective effect, % cell survival as compared to vehicle DMSO ([2]; normoxia, EC5 concentration 3.0 microM): 95 ± 2% | Cytoprotective effect, % cell survival as compared to vehicle DMSO ([2]; normoxia, EC10 concentration 10.0 microM): 99 ± 2% | Cytoprotective effect, % cell survival as compared to vehicle DMSO ([2]; normoxia, EC20 concentration 30.0 microM): 100 ± 2% | Cytoprotective effect, % cell survival as compared to vehicle DMSO ([2]; normoxia, EC50 concentration 90.0 microM): 83 ± 2 % | Cytoprotective effect, % cell survival as compared to vehicle DMSO ([2]; simulated ischemia, EC5 concentration 3.0 microM): 109 ± 5% | Cytoprotective effect, % cell survival as compared to vehicle DMSO ([2]; simulated ischemia, EC10 concentration 10.0 microM): 117 ± 5 % | Cytoprotective effect, % cell survival as compared to vehicle DMSO ([2]; simulated ischemia, EC20 concentration 30.0 microM): 114 ± 4 % | Cytoprotective effect, % cell survival as compared to vehicle DMSO ([2]; simulated ischemia, EC50 concentration 90.0 microM): 88 ± 4% | CC50 at 48 h [4]: 1 µM | CC50 at 48 h [5]: 2.9 µM

IC50 [1]: 200 µM | IC50 [3]: 190 µM | IC50 [6]: 19 µM | IC50 [7]: > 500 µM
SMILES: CCOC(=O)c1csc(CN(Cc2ccc(OCc3ccncc3)cc2)Cc2cccnc2)n1 [Compound 19, Ethyl 2-{[(pyridin-3-ylmethyl)({[4-(pyridin-4-ylmethoxy)phenyl]methyl})amino]methyl}-1,3-thiazole-4-carboxylate]
CC50 at 48 h [4]: 7.3 µM | CC50 at 48 h [5]: 27 µM

IC50 [1]: 195 µM | IC50 [3]: 200 µM | IC50 [6]: 19 µM | IC50 [7]: 230 µM
SMILES: CCOC(=O)c1csc(CN(Cc2ccc(OCc3cccnc3)cc2)Cc2cccnc2)n1 [Compound 17, Ethyl 2-[({[4-(pyridin-3-ylmethoxy)phenyl]methyl}(pyridin-3-ylmethyl)amino)methyl]-1,3-thiazole-4-carboxylate]
CC50 at 48 h [4]: 47 µM | CC50 at 48 h [5]: 15 µM
